From patent US20090220562A1, “Osteogenic and anti-adipogenic oxysterols” (priority 2005, published 2009) come the findings set out here.

Common to all, as to format: cell-based, mouse
The subject of one assay is Runx2. Nature of the assay: Runx2 DNA binding and protein expression in M2-10B4 cells. To be noted: pretreatment; cyclopamine 1-10 μM; DKK-1 1 μg/ml (Runx2 protein expression only). On the procedure:
Method: Marrow stromal cells (M2-10B4 (M2)) were treated with doses of 5-15 μM 20S-hydroxycholestrol.
Method: Marrow stromal cells (M2-10B4 (M2)) were treated with doses of 5-15 μM20S-hydroxycholestrol. Groups of cells were pre-treated with 22S or 22R.
Method: Marrow stromal cells (M2-10B4 (M2)) were pretreated with Wnt signaling inhibitor, DKK-1 (1 μg/ml), then treated with 20S-hydroxycholestrol and 22(8)-hydroxycholesterol.

The test system of assay [1] is M2-10B4 marrow stromal cells. Nature of the assay: Matrix mineralization (45Ca incorporation assay, von Kossa staining) in M2-10B4 marrow stromal cells. To be noted: pretreatment; cyclopamine 1-10 μM, DKK-1 1 μg/ml. On the procedure: (§1) Cells: M2-10B4 mouse marrow stromal cell line obtained from American Type Culture Collection (ATCC, Rockville, Md., U.S.A.) was derived from bone marrow stromal cells of a (C57BL/6J x C3H/HeJ) Fl mouse, and support human and murine myelopoiesis in long-term cultures (as per ATCC) and have the ability to differentiate into osteoblastic and adipocytic cells. Unless specified, these cells were cultured in RPMI 1640 containing 10% heat-inactivated FBS, and supplemented with 1 mM sodium pyruvate, 100 U/ml penicillin, and 100 U/ml streptomycin (all from Irvine Scientific).
(§2) Von Kossa and oil red O staining—Matrix mineralization in cell monolayers was detected by silver nitrate staining as previously described. Oil red O staining for detection of adipocytes was performed as previously described.
^45Ca incorporation assay—Matrix mineralization in cell monolayers was quantified using the ^45Ca incorporation assay as previously described.
After 14 days, mineralization was identified by a von Kossa staining, which appears black. FIG. 3C is a depiction of von Kossa staining of M2 cells exposed to various conditions.
After 14 days, matrix mineralization in cultures was quantified using a ^45Ca incorporation assay.
(§3) Next, a combination of 22R and 20S oxysterols (RS, 2.5 μM each) were added in the presence or absence of SC as indicated. After 3 days, ALP activity was measured as described earlier. […] (B) M2 cells were treated as described in (A) and after 10 days matrix mineralization in cultures was quantified by a ^45Ca incorporation assay as described earlier. […] (C) M2 cells were pretreated with 20 μM SC for 4 hours, followed by the addition of RS in the presence or absence of SC as described above. After 8 days, total RNA was isolated and analyzed for osteocalcin (Osc) and […] expression by Northern blotting as previously described. Data from densitometric analysis of the Northern blot is shown in (D) as the average of duplicate samples, normalized to 18S rRNA. (E) M2 cells at confluence were pretreated for 2 hours with control vehicle (C), or PLA2 inhibitors ACA (25 μM) and AACOCF3 (AAC, 20 μM), in osteogenic medium. Next, a combination of 22R and 20S oxysterols (RS, 2.5 μM) was added in the presence or absence of the inhibitors as indicated. After 3 days, ALP activity was measured as previously described. […] (F) M2 cells were treated as described in (E). After 10 days, matrix mineralization in cultures was quantified using a ^45Ca incorporation assay as previously described. Results from a representative of three experiments are shown, reported as the mean of quadruplicate determinations ±SD, normalized to protein concentration (p<0.01 for RS vs. RS+ACA and RS+AAC).
(A) M2 cells at confluence were pretreated for four hours with RPMI containing 1% FBS, followed by treatment with control vehicle or 5 μM 20S oxysterol for 1, 4, or 8 hours. Next total cell extracts were prepared and analyzed for levels of native or phosphorylated ERK (pERK) using specific antibodies as previously described. Data from a representative of four experiments are shown, each treatment shown in duplicate samples. (B) M2 cells at confluence were pretreated for 2 hours with control vehicle (C) or 20 μM PD98059 (PD) in osteogenic medium as previously described. Next, a combination of 22R and 20S oxysterols (RS, 5 μM each) were added to appropriate wells as indicated. After 10 days of incubation, matrix mineralization was quantified by the ^45Ca incorporation assay as previously described. […] (C) M2 cells at confluence were pretreated for 2 hours with 20 µM PD98059 (PD) in RPMI containing 5% FBS. Next, the cells were treated with control vehicle (C), 10 μM troglitazone (Tro), or 10 μM of 20S or 22S oxysterols, alone or in combination as indicated. After 10 days, adipocytes were visualized by oil Red O staining and quantified by light microscopy as previously described. […]

The next assay relates to osteocalcin mRNA. Nature of the assay: Northern blotting for osteocalcin mRNA in M2-10B4 cells. To be noted: for levels of osteocalcin mRNA relative to the control: 5 μM, eight days, M2-10B4. Here is the method: RNA isolation and Northern blot analysis—Following treatment of cells under appropriate experimental conditions, total RNA was isolated using the RNA isolation kit from Stratagene (La Jolla, Calif., U.S.A.). Total RNA ([…]) was run on a 1% agarose/formaldehyde gel and transferred to Duralon-UV membranes (Strategene, CA, U.S.A.) and cross-linked with UV light. The membranes were hybridized overnight at 60 degree C. with ^32P-labeled mouse osteocalcin cDNA probe, mouse lipoprotein lipase (LPL), mouse adipocyte protein 2 (aP^2) PCR-generated probes, human 28S or 18S rRNA probes obtained from Geneka Biotechnology (Montreal, Quebec, Canada) and Maxim Biotech (San Francisco, Calif., U.S.A.), respectively. The PCR products were generated using primer sets synthesized by Invitrogen (Carlsbad, Calif., U.S.A.) with the following specifications: mouse aP2 gene (accession no. M13261); sense (75-95) 5′-[…]-3′, antisense (362-383) 5′-[…]-3′, generating a PCR product of 309 base pairs. Mouse LPL (accession no. XM—134193); sense (1038-1058) 5′-[…]-3′, antisense (1816-1836) 5′-[…]-3′, generating a PCR product of 799 base pairs. The PCR products were gel-purified and sequenced by the UCLA sequencing core, showing the highest similarity to their respective GenBank entries. Following hybridization, the blots were washed twice at room temperature with 2×SSC+0.1% SDS, and then twice at 60 degree C. with 0.5×SSC+0.1% SDS, and exposed to X-ray film. The extent of gene induction was determined by densitometry.
After 4 and 8 days, total RNA from duplicate samples was isolated and analyzed for osteocalcin (Osc) and 28S rRNA expression by Northern blotting as described. FIG. 3E is a radiogram of Northern blotting for osteocalcin mRNA in M2 cells exposed to a control or combination of oxysterols for 4 or 8 days. FIG. 3F is a bar graph depicting the relative demsometric units of osteocalcin mRNA in M2 cells exposed to a control or combination of oxysterols for 4 -or 8 days. Data from densitometric analysis of the Northern blot is shown in (F) as the average of duplicate samples, normalized to 28S rRNA.
as §3
ALP activity was measured after 2 days, as described. […] (B) M2 cells were treated as described in (A). After 10 days, matrix mineralization in cultures was quantified using a ^45Ca incorporation assay as described. […] (C) M2 cells were treated under similar conditions as those described above. […]

A further assay relates to marrow stromal cells. In words: Osteogenic differentiation of marrow stromal cells (marker not specified: ALP activity, osteocalcin mRNA, mineral formation). Here is the method:
The purpose of the study was to identify other osteogenic and anti-adipogenic oxysterols based on the chemical structure of previously identified oxysterols. The ability of such candidate oxysterol molecules to induce the formation of osteoblastic cells in cultures of marrow stromal cells (which are progenitors of osteoblastic cells that make bone) were tested. In order to assess osteogenic differentiation of cells, one or more markers of osteogenic differentiation were measured in untreated cells and cells treated with the test oxysterols. These markers included: alkaline phosphatase activity, osteocalcin mRNA expression and mineral formation in cultures of marrow stromal cells. Activation of either one or more than one marker by a single or combination oxysterols is indicative of their osteogenic property.

Assay [2] relates to M2-10B4 marrow stromal cells. Nature of the assay: Alkaline phosphatase (ALP) activity assay on whole cell extracts of M2-10B4 marrow stromal cells. The note with it: for Enzyme Activity (units/mg total cellular protein) ± SD, alkaline phosphatase: oxysterols 5 μM, 4 days, M2-10B4, untreated 6 ± 3. Here is the method:
as §1
Cells were always treated at 90% confluence. […]
as §3, with “Results from a representative of three experiments are shown, reported as the mean of quadruplicate determinations ±SD, normalized to protein concentration (p<0.01 for RS vs. RS+ACA and RS+AAC).” left out

Another assay deals with M2 cells. In words: Troglitazone-induced adipogenesis in M2 cells (oil Red O staining, adipocyte count). To be noted: Tro 10 μM, oxysterol 10 μM, 10 days, alone or in combination. Here is the method:
as §2
Test 1: M2 cells at 90% confluence were treated with vehicle (C), PPAR-γ activator, troglitazone 10 μM (Tro), alone or in combination with 10 μM oxysterols 20S-, 22R-, or 25S-hydroxycholesterol. After 8 days, adipocytes were identified by oil Red 0 staining and quantified by counting under a phase contrast microscope. FIG. 6A is a bar graph depicting the effect of oxysterols on reducing adipogenesis of MSC.
Test 2: (A) M2 cells at confluence were treated in RPMI containing 10% FBS with control vehicle or 10 μM troglitazone (Tro) in the absence or presence of 10 μM 20S or 22S-hydroxycholesterol. After 10 days, adipocytes were visualized by oil Red O staining and quantified by light microscopy, shown in (B). […] (C) M2 cells were treated at confluence with 10 μM Tro, alone or in combination with 10 μM 20S oxysterol. After 10 days, total RNA was isolated and analyzed for lipoprotein lipase (LPL), adipocyte P2 gene (aP2) or 18S rRNA expression by Northern blotting as described (Ref). Data from densitometric analysis of the Northern blot is shown in (D) as the average of duplicate samples, normalized to 18S rRNA.

The structures appear in SMILES notation.

`CC1=C2C[C@H]3[C@@H](CC=C4C[C@@H](O)CC[C@@]43C)[C@@H]2CC[C@]12O[C@@H]1C[C@H](C)CN[C@H]1[C@H]2C` [cyclopamine, reference compound]: the “effect on SS-induced Runx2 DNA binding and protein expression” value with Runx2 is listed as “inhibited”. Moreover, the “effect on SS-induced mineralization” value in assay [1] was “inhibited”. In the assay on osteocalcin mRNA (pretreatment, cyclopamine 1-10 μM, DKK-1 1 μg/ml), the “effect on SS-induced osteocalcin mRNA expression” value is reported as “inhibited”.
On to `CC(C)CCC[C@@H](C)[C@H]1CC[C@H]2[C@@H]3CC=C4[C@@H](O)[C@@H](O)CC[C@]4(C)[C@H]3CC[C@]12C` [4beta-hydroxycholesterol], for which, in the assay with osteocalcin mRNA, the “levels of osteocalcin mRNA relative to the control” value is “moderate increase”. Also, in the assay with marrow stromal cells, the “osteogenic property, alone or in combination with originally described oxysterols” value (“osteogenic property” for short) was “osteoinductive”.
For the compound `CC(C)[C@@H](O)CC[C@@H](C)[C@H]1CC[C@H]2[C@@H]3CC=C4C[C@@H](O)CC[C@]4(C)[C@H]3CC[C@]12C` [24-hydroxycholesterol, 24(S)-hydroxycholesterol], the “Enzyme Activity (units/mg total cellular protein) ± SD, alkaline phosphatase” value in assay [2] is on record as 250 ± 20 units/mg total cellular protein. Besides, in the assay on marrow stromal cells, the “osteogenic property” value is on record as “osteoinductive”.
In the case of `C[C@H](CC[C@@H]1OC1(C)C)[C@H]1CC[C@H]2[C@@H]3CC=C4C[C@@H](O)CC[C@]4(C)[C@H]3CC[C@]12C` [24S,25-epoxycholesterol], the “Enzyme Activity (units/mg total cellular protein) ± SD, alkaline phosphatase” value in assay [2] is given as 1,588 ± 19^ units/mg total cellular protein. In the assay on osteocalcin mRNA, the “levels of osteocalcin mRNA relative to the control” value was “increased”. The “osteogenic property” value with marrow stromal cells is “osteoinductive”.
In the case of `CC(C)CCC[C@@H](C)[C@H]1CC[C@H]2[C@@H]3C(=O)C=C4C[C@@H](O)CC[C@]4(C)[C@H]3CC[C@]12C` [7-ketocholesterol, reference compound], in assay [2] (10 μM oxysterol, 3 days, osteogenic medium), the “induction of alkaline phosphatase activity” value is on record as “did not induce”. Further, the “effect on troglitazone-induced adipogenesis” value with M2 cells is “unable to inhibit adipogenesis”.
